# US12012417B2, “N-substituted tetrahydrothienopyridine derivatives and uses thereof” (NOVARTIS AG, priority 2018, dated 2024)
# How the values were obtained:
# [1] = system: Dengue 4 virus MY01-22713; assay: High-content imaging cell-based flavivirus immunodetection (HCl-CFI) assay, Dengue 4; settings: Dengue virus, A549, 48 h, read-out: Dengue 4 virus MY01-22713 in A549 using HCl [Inhibitor/IC50] Qualified AC50, A549 cells, 48 h, viral E protein expression
# [2] = system: Dengue 3 virus MY05-34640-WT-C6/36; assay: High-content imaging cell-based flavivirus immunodetection (HCl-CFI) assay, Dengue 3; settings: Dengue virus, A549, 48 h, read-out: Dengue 3 virus MY05-34640-WT-C6/36 in A549 using HCl [Inhibitor/IC50] Qualified AC50
# [3] = system: Dengue 2 virus MY97-10340; assay: High-content imaging cell-based flavivirus immunodetection (HCl-CFI) assay, Dengue 2; settings: Dengue virus, A549, 48 h, read-out: Dengue 2 virus MY97-10340 in A549 using HCl [Inhibitor/IC50] Qualified AC50, A549 cells, MOI 0.3, 48 h, viral E protein expression
# Method in brief: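 A549 cells infected at MOI 0.3, treated with 3-fold, 10-point compound dilutions for 48 h. After paraformaldehyde fixation, viral E protein immunostained with 4G2 antibody and nuclei counterstained; imaged by high-content imaging. EC50 = concentration reducing E protein expression by 50%, from dose-response curves.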
# [4] = system: Dengue 1 virus MY97-10245; assay: High-content imaging cell-based flavivirus immunodetection (HCl-CFI) assay, Dengue 1; settings: Dengue virus, A549, 48 h, read-out: Dengue 1 virus MY97-10245 in A549 using HCl [Inhibitor/IC50] Qualified AC50
Structure (SMILES),EC50 [1] [nM],EC50 [2] [nM],EC50 [3] [nM],EC50 [4] [nM]
"N#Cc1c(NC(=O)Cc2ccc(S(N)(=O)=O)cc2)sc2c1CCN(Cc1cccc(F)c1)CC2 [Example 124, N-(3-cyano-6-(3-fluorobenzyl)-5,6,7,8-tetrahydro-4H-thieno[2,3-d]azepin-2-yl)-2-(4-sulfamoylphenyl)acetamide]",< 100,< 100,100 to 1000,100 to 1000
"N#Cc1c(NC(=O)Cc2ccc(S(N)(=O)=O)cc2)sc2c1CN(Cc1cccc(F)c1)CC2 [Example 5, N-(3-cyano-5-(3-fluorobenzyl)-4,5,6,7-tetrahydrothieno[3,2-c]pyridin-2-yl)-2-(4-sulfamoylphenyl)acetamide]",< 100,< 100,< 100,100 to 1000
"CC1Cc2c(sc(NC(=O)Cc3ccc(S(N)(=O)=O)cc3)c2C#N)CN1Cc1cccc(F)c1 (stereo not drawn) [Example 122, N-(3-cyano-6-(3-fluorobenzyl)-5-methyl-4,5,6,7-tetrahydrothieno[2,3-c]pyridin-2-yl)-2-(4-sulfamoylphenyl)acetamide]",< 100,100 to 1000,< 100,> 1000
"CC1Cc2sc(NC(=O)Cc3ccc(S(N)(=O)=O)cc3)c(C#N)c2CN1CC1CCCCC1 (stereo not drawn) [Example 62, N-(3-cyano-5-(cyclohexylmethyl)-6-methyl-4,5,6,7-tetrahydrothieno[3,2-c]pyridin-2-yl)-2-(4-sulfamoylphenyl)acetamide]",< 100,< 100,< 100,100 to 1000
"COc1cc(S(N)(=O)=O)ccc1CC(=O)Nc1sc2c(c1C#N)CN(CC1CCCCC1)CC2 [Example 19, N-(3-cyano-5-(cyclohexylmethyl)-4,5,6,7-tetrahydrothieno[3,2-c]pyridin-2-yl)-2-(2-methoxy-4-sulfamoylphenyl)acetamide]",< 100,< 100,< 100,< 100
"N#Cc1c(NC(=O)Cc2ccc(S(N)(=O)=O)c(F)c2)sc2c1CN(CC1CCCCC1)CC2 [Example 9, N-(3-cyano-5-(cyclohexylmethyl)-4,5,6,7-tetrahydrothieno[3,2-c]pyridin-2-yl)-2-(3-fluoro-4-sulfamoylphenyl)acetamide]",< 100,< 100,< 100,100 to 1000
"CC1Cc2sc(NC(=O)Cc3ccc(S(N)(=O)=O)cc3)c(C#N)c2CN1CC1CC(F)(F)C1 (stereo not drawn) [Example 56, N-(3-cyano-5-((3,3-difluorocyclobutyl)methyl)-6-methyl-4,5,6,7-tetrahydrothieno[3,2-c]pyridin-2-yl)-2-(4-sulfamoylphenyl)acetamide]",< 100,100 to 1000,100 to 1000,> 1000
"COc1cc(S(N)(=O)=O)ccc1CC(=O)Nc1sc2c(c1C#N)CN(Cc1cccc(F)c1)CC2 [Example 24, N-(3-cyano-5-(3-fluorobenzyl)-4,5,6,7-tetrahydrothieno[3,2-c]pyridin-2-yl)-2-(2-methoxy-4-sulfamoylphenyl)acetamide]",100 to 1000,< 100,100 to 1000,100 to 1000
"COC(=O)c1cccc(CN2CCc3c(sc(NC(=O)Cc4ccc(S(N)(=O)=O)cc4)c3C#N)C2)c1 [Example 108, Methyl 3-((3-cyano-2-(2-(4-sulfamoylphenyl)acetamido)-4,7-dihydrothieno[2,3-c]pyridin-6(5H)-yl)methyl)benzoate]",< 100,< 100,< 100,100 to 1000
"N#Cc1c(NC(=O)Cc2ccc(S(=O)(=O)C(F)F)cc2)sc2c1CN(Cc1cccc(F)c1)CC2 [Example 45, N-(3-cyano-5-(3-fluorobenzyl)-4,5,6,7-tetrahydrothieno[3,2-c]pyridin-2-yl)-2-(4-((difluoromethyl)sulfonyl)phenyl)acetamide]",100 to 1000,100 to 1000,> 1000,> 1000
"CS(=O)(=O)Nc1ccc(CC(=O)Nc2sc3c(c2C#N)CN(CC2CCCCC2)CC3)cc1 [Example 13, N-(3-cyano-5-(cyclohexylmethyl)-4,5,6,7-tetrahydrothieno[3,2-c]pyridin-2-yl)-2-(4-(methylsulfonamido)phenyl)acetamide]",100 to 1000,100 to 1000,100 to 1000,100 to 1000
"Cc1cccc(CN2CCc3c(sc(NC(=O)Cc4ccc(S(C)(=O)=O)cc4)c3C#N)C2)c1 [Example 104, N-(3-cyano-6-(3-methylbenzyl)-4,5,6,7-tetrahydrothieno[2,3-c]pyridin-2-yl)-2-(4-(methylsulfonyl)phenyl)acetamide]",< 100,100 to 1000,100 to 1000,> 1000
"Cc1ccccc1CN1CCc2c(sc(NC(=O)Cc3ccc(S(N)(=O)=O)cc3)c2C#N)C1 [Example 97, N-(3-cyano-6-(2-methylbenzyl)-4,5,6,7-tetrahydrothieno[2,3-c]pyridin-2-yl)-2-(4-sulfamoylphenyl)acetamide]",100 to 1000,100 to 1000,100 to 1000,100 to 1000
"Cc1ccc(CN2CCc3c(sc(NC(=O)Cc4ccc(S(N)(=O)=O)cc4)c3C#N)C2)cc1 [Example 98, N-(3-cyano-6-(4-methylbenzyl)-4,5,6,7-tetrahydrothieno[2,3-c]pyridin-2-yl)-2-(4-sulfamoylphenyl)acetamide]",100 to 1000,100 to 1000,100 to 1000,> 1000
"N#Cc1c(NC(=O)Cc2ccc(S(N)(=O)=O)cc2)sc2c1CCCN(CC1CCCCC1)C2 [Example 127, N-(3-cyano-7-(cyclohexylmethyl)-5,6,7,8-tetrahydro-4H-thieno[2,3-c]azepin-2-yl)-2-(4-sulfamoylphenyl)acetamide]",100 to 1000,100 to 1000,100 to 1000,> 1000
"COCCOc1cc(CC(=O)Nc2sc3c(c2C#N)CN(Cc2cccc(F)c2)C(C)C3)ccc1S(N)(=O)=O (stereo not drawn) [Example 86, N-(3-cyano-5-(3-fluorobenzyl)-6-methyl-4,5,6,7-tetrahydrothieno[3,2-c]pyridin-2-yl)-2-(3-(2-methoxyethoxy)-4-sulfamoylphenyl)acetamide]",< 100,< 100,< 100,100 to 1000
"Cc1cccc(CN2CCc3c(sc(NC(=O)Cc4ccc(S(N)(=O)=O)cc4)c3C#N)C2)c1F [Example 115, N-(3-cyano-6-(2-fluoro-3-methylbenzyl)-4,5,6,7-tetrahydrothieno[2,3-c]pyridin-2-yl)-2-(4-sulfamoylphenyl)acetamide]",< 100,< 100,< 100,100 to 1000
"CS(=O)(=O)c1ccc(CC(=O)Nc2sc3c(c2C#N)CCN(Cc2ccc(F)c(F)c2)C3)cc1 [Example 117, N-(3-cyano-6-(3,4-difluorobenzyl)-4,5,6,7-tetrahydrothieno[2,3-c]pyridin-2-yl)-2-(4-(methylsulfonyl)phenyl)acetamide]",< 100,100 to 1000,100 to 1000,100 to 1000
"N#Cc1c(NC(=O)Cc2ccc3c(c2)CNS3(=O)=O)sc2c1CN(CC1CC(F)(F)C1)CC2 [Example 52, N-(3-cyano-5-((3,3-difluorocyclobutyl)methyl)-4,5,6,7-tetrahydrothieno[3,2-c]pyridin-2-yl)-2-(1,1-dioxido-2,3-dihydrobenzo[d]isothiazol-5-yl)acetamide]",100 to 1000,100 to 1000,100 to 1000,> 1000
"CCOc1cc(CC(=O)Nc2sc3c(c2C#N)CN(CC2CCCCC2)CC3)ccc1S(N)(=O)=O [Example 12, N-(3-cyano-5-(cyclohexylmethyl)-4,5,6,7-tetrahydrothieno[3,2-c]pyridin-2-yl)-2-(3-ethoxy-4-sulfamoylphenyl)acetamide]",< 100,< 100,< 100,< 100
"N#Cc1c(NC(=O)Cc2ccc(S(N)(=O)=O)cc2)sc2c1CCN(Cc1ccc(F)cc1)C2 [Example 101, N-(3-cyano-6-(4-fluorobenzyl)-4,5,6,7-tetrahydrothieno[2,3-c]pyridin-2-yl)-2-(4-sulfamoylphenyl)acetamide]",< 100,100 to 1000,100 to 1000,100 to 1000
"CC1Cc2sc(NC(=O)Cc3ccc(S(N)(=O)=O)cc3)c(C#N)c2CN1Cc1cc(F)cc(F)c1 (stereo not drawn) [Example 85, N-(3-cyano-5-(3,5-difluorobenzyl)-6-methyl-4,5,6,7-tetrahydrothieno[3,2-c]pyridin-2-yl)-2-(4-sulfamoylphenyl)acetamide]",< 100,< 100,< 100,100 to 1000
"CS(=O)(=O)Nc1ccc(CC(=O)Nc2sc3c(c2C#N)CN(Cc2cccc(F)c2)CC3)cc1 [Example 46, N-(3-cyano-5-(3-fluorobenzyl)-4,5,6,7-tetrahydrothieno[3,2-c]pyridin-2-yl)-2-(4-(methylsulfonamido)phenyl)acetamide]",100 to 1000,100 to 1000,100 to 1000,100 to 1000
"N#Cc1c(NC(=O)Cc2ccc3c(c2)CNS3(=O)=O)sc2c1CN(Cc1cccc(F)c1)CC2 [Example 23, N-(3-cyano-5-(3-fluorobenzyl)-4,5,6,7-tetrahydrothieno[3,2-c]pyridin-2-yl)-2-(1,1-dioxido-2,3-dihydrobenzo[d]isothiazol-5-yl)acetamide]",100 to 1000,< 100,100 to 1000,100 to 1000
